pIC50: −log10 of the molar value. Structures can show the parent of a compound that is named as a salt.
molecular target: T1, Met kinase domain (GST fusion protein) (Homo sapiens, UniProt P08581); assay: Met transphosphorylation assay (ELISA, poly(glu-tyr) substrate); format: biochemical; settings: read-out: Met IC50;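 further: Cell-free ELISA with plate-bound poly(Glu:Tyr 4:1) phosphorylated by GST-fused Met kinase domain plus ATP and Mn2+, phosphotyrosine detected by anti-phosphotyrosine antibody with HRP and ABTS read-out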
T1 construct: Purified GST fusion protein containing the Met kinase domain
T1 sequence (P08581 1078-1345 limits assumed): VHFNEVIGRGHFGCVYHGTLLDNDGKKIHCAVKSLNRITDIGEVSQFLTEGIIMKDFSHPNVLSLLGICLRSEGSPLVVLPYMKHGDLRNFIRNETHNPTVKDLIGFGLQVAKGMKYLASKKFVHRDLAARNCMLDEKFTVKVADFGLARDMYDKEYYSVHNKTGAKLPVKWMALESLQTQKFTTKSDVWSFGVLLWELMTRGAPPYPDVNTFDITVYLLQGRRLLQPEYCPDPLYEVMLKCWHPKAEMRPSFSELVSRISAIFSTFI

Compound | pIC50
CC(Oc1nc(-c2cccc(C(=O)N3CCC[C@@H]3CN3CCCC3)c2)cnc1N)c1c(Cl)cccc1Cl (stereo partly drawn) [II-177, (3-{5-Amino-6-[1-(2,6-dichloro-phenyl)-ethoxy]-pyrazin-2-yl}-phenyl)-((R)-2-pyrrolidin-1-ylmethyl-pyrrolidin-1-yl)-methanone] | 6.48
CC(Oc1nc(-c2cccc(C(=O)NCCCN3CCCC3)c2)cnc1N)c1c(Cl)cccc1Cl (stereo not shown) [II-178, 3-{5-Amino-6-[1-(2,6-dichloro-phenyl)-ethoxy]-pyrazin-2-yl}-N-(3-pyrrolidin-1-yl-propyl)-benzamide] | 6.47
CC(Oc1nc(-c2cccc(C(=O)N3CC[C@H](N)C3)c2)cnc1N)c1c(Cl)cccc1Cl (stereo partly drawn) [II-179, (3-{5-Amino-6-[1-(2,6-dichloro-phenyl)-ethoxy]-pyrazin-2-yl}-phenyl)-((S)-3-amino-pyrroldin-1-yl)-methanone] | 6.96
CC(Oc1nc(-c2cccc(C(=O)N3CC[C@@H](N)C3)c2)cnc1N)c1c(Cl)cccc1Cl (stereo partly drawn) [II-180, (3-{5-Amino-6-[1-(2,6-dichloro-phenyl)-ethoxy]-pyrazin-2-yl}-phenyl)-((R)-3-amino-pyrrolidin-1-yl)-methanone hydrochloride salt] | 6.74
CC(Oc1nc(-c2cccc(C(=O)N3CCN(C)CC3)c2)cnc1N)c1c(Cl)cccc1Cl (stereo not shown) [II-181, (3-{5-Amino-6-[1-(2,6-dichloro-phenyl)-ethoxy]-pyrazin-2-yl}-phenyl)-(4-methyl-piperazin-1-yl)-methanone] | 6.60
CC(Oc1nc(-c2ccc(NC(=O)N3CC[C@H](N)C3)cc2)cnc1N)c1c(Cl)ccc(F)c1Cl (stereo partly drawn) [II-191, (S)-3-Amino-pyrrolidine-1-carboxylic acid (4-{5-amino-6-[1-(2,6-dichloro-3-fluoro-phenyl)-ethoxy]-pyrazin-2-yl}-phenyl)-amide] | 5.52
CN1CCN(C(=O)c2ccc(-c3cnc(N)c(OCc4c(F)ccc(F)c4Cl)n3)s2)CC1 [II-194, {5-[5-Amino-6-(2-chloro-3,6-difluoro-benzyloxy)-pyrazin-2-yl]-thiophen-2-yl)(4-methyl-piperazin-1-yl)-methanone] | 6.21
Nc1ncc(-c2ccc(C(=O)N3CCC(N4CCCC4)CC3)s2)nc1OCc1c(F)ccc(F)c1Cl [II-195, {5-[5-Amino-6-(2-chloro-3,6-difluoro-benzyloxy)-pyrazin-2-yl]-thiophen-2-yl}-(4-pyrrolidin-1-yl-piperidin-1-yl)-methanone] | 6.29
C[C@@H]1CN(C(=O)c2ccc(-c3cnc(N)c(OCc4c(F)ccc(F)c4Cl)n3)s2)C[C@H](C)N1 [II-196, {5-[5-Amino-6-(2-chloro-3,6-difluoro-benzyloxy)-pyrazin-2-yl]-thiophen-2-yl}-((3R,5S)-3,5-dimethyl-piperazin-1-yl)-methanone] | 6.26
Nc1ncc(-c2ccc(C(=O)N3CCC[C@@H]3CN3CCCC3)s2)nc1OCc1c(F)ccc(F)c1Cl [II-197, {5-[5-Amino-6-(2-chloro-3,6-difluoro-benzyloxy)-pyrazin-2-yl]-thiophen-2-yl}-((R)-2-pyrrolidin-1-ylmethyl-pyrrolidin-1-yl)-methanone] | 6.10
Nc1ncc(-c2ccc(C(=O)NCCN3CCOCC3)s2)nc1OCc1c(F)ccc(F)c1Cl [II-198, 5-[5-Amino-6-(2-chloro-3,6-difluoro-benzyloxy)-pyrazin-2-yl]-thiophene-2-carboxylic acid (2-morpholin-4-yl-ethyl)-amide] | 6.15
CC(Oc1nc(-c2ccc(C(=O)N3CCN(C)CC3)cn2)cnc1N)c1c(Cl)ccc(F)c1Cl (stereo not shown) [II-199, 3-[1-(2,6-dichloro-3-fluoro-phenyl)ethoxy]-5-{5-[(4-methylpiperazin-1-yl)carbonyl]-pyridin-2-yl}pyrazin-2-amine trifluoroacetate] | 6.82
CC(Oc1nc(-c2ccncc2)cnc1N)c1c(Cl)ccc(F)c1Cl (stereo not shown) [II-200, 3-[1-(2,6-Dichloro-3-fluoro-phenyl)-ethoxy]-5-pyridin-4-yl-pyrazin-2-ylamine] | 7.35
CC(Oc1nc(-c2ccc[nH]2)cnc1N)c1c(Cl)ccc(F)c1Cl (stereo not shown) [II-201, 3-[1-(2,6-Dichloro-3-fluoro-phenyl)-ethoxy]-5-(1H-pyrrol-2-yl)-pyrazin-2-ylamine] | 6.66
CC(Oc1nc(-c2ccc(C(=O)N3CCN(C)CC3)cn2)cnc1N)c1c(Cl)ccc(F)c1Cl (stereo not shown) [II-202, (6-{5-Amino-6-[1-(2,6-dichloro-3-fluoro-phenyl)-ethoxy]-pyrazin-2-yl}-pyridin-3-yl)-(4-methyl-piperazin-1-yl)-methanone] | 6.82
CC(Oc1nc(-c2cc(C(=O)N3CCN(C)CC3)ccn2)cnc1N)c1c(Cl)ccc(F)c1Cl (stereo not shown) [II-203, (2-{5-Amino-6-[1-(2,6-dichloro-3-fluoro-phenyl)-ethoxy]-pyrazin-2-yl}-pyridin-4-yl)-(4-methyl-piperazin-1-yl)-methanone] | 6.74
CC(Oc1nc(-c2cccc(C(=O)N3CCN(C)CC3)n2)cnc1N)c1c(Cl)ccc(F)c1Cl (stereo not shown) [II-204, (6-{5-Amino-6-[1-(2,6-dichloro-3-fluoro-phenyl)-ethoxy]-pyrazin-2-yl}-pyridin-2-yl)-(4-methyl-piperazin-1-yl)-methanone] | 6.66
CC(Oc1nc(-c2cncc(C(=O)N3CCN(C)CC3)c2)cnc1N)c1c(Cl)ccc(F)c1Cl (stereo not shown) [II-205, (5-{5-Amino-6-[1-(2,6-dichloro-3-fluoro-phenyl)-ethoxy]-pyrazin-2-yl}-pyridin-3-yl)-(4-methyl-piperazin-1-yl)-methanone] | 7.00
CC(Oc1nc(-c2ccnc(C(=O)N3CCN(C)CC3)c2)cnc1N)c1c(Cl)ccc(F)c1Cl (stereo not shown) [II-206, (4-{5-Amino-6-[1-(2,6-dichloro-3-fluoro-phenyl)-ethoxy]-pyrazin-2-yl}-pyridin-2-yl)-(4-methyl-piperazin-1-yl)-methanone] | 7.00
CC(Oc1nc(-c2cncc(C(=O)NCCN3CCOCC3)c2)cnc1N)c1c(Cl)ccc(F)c1Cl (stereo not shown) [II-208, 5-{5-Amino-6-[1-(2,6-dichloro-3-fluoro-phenyl)-ethoxy]-pyrazin-2-yl}-N-(2-morpholin-4-yl-ethyl)-nicotinamide] | 7.42
CC(Oc1nc(-c2cncc(C(=O)NCCCN3CCOCC3)c2)cnc1N)c1c(Cl)ccc(F)c1Cl (stereo not shown) [II-210, 5-{5-Amino-6-[1-(2,6-dichloro-3-fluoro-phenyl)-ethoxy]-pyrazin-2-yl}-N-(3-morpholin-4-yl-propyl)-nicotinamide] | 7.66

Second part, the compound after the results:

pIC50 | Compound
6.74 | CC(Oc1nc(-c2ccc(NC(=O)NCCN3CCOCC3)cc2)cnc1N)c1c(F)ccc(F)c1Cl (stereo not shown) [II-182, 1-(4-{5-Amino-6-[1-(2-chloro-3,6-difluoro-phenyl)-ethoxy]-pyrazin-2-yl}-phenyl)-3-(2-morpholin-4-yl-ethyl)-urea]
6.68 | CC(Oc1nc(-c2ccc(NC(=O)N3CCC[C@@H]3CN3CCCC3)cc2)cnc1N)c1c(F)ccc(F)c1Cl (stereo partly drawn) [II-183, (R)-2-Pyrrolidin-1-ylmethyl-pyrrolidin-1-carboxylic acid (4-{5-amino-6-[1-(2-chloro-3,6-difluoro-phenyl)-ethoxy]-pyrazin-2-yl}-phenyl)-amide]
6.74 | CC(Oc1nc(-c2ccc(NC(=O)NCCN3CCCC3)cc2)cnc1N)c1c(F)ccc(F)c1Cl (stereo not shown) [II-184, 1-(4-{5-Amino-6-[1-(2-chloro-3,6-difluoro-phenyl)-ethoxy]-pyrazin-2-yl}-phenyl)-3-(2-pyrrolidin-1-yl-ethyl)-urea]
7.00 | CC(Oc1nc(-c2ccc(NC(=O)N3CCN(C)CC3)cc2)cnc1N)c1c(F)ccc(F)c1Cl (stereo not shown) [II-185, 4-Methyl-piperazin-1-carboxylic acid (4-{5-amino-6-[1-(2-chloro-3,6-difluoro-phenyl)-ethoxy]-pyrazin-2-yl}-phenyl)-amide]
6.68 | CC(Oc1nc(-c2ccc(NC(=O)NCCO)cc2)cnc1N)c1c(F)ccc(F)c1Cl (stereo not shown) [II-186, 1-(4-{5-Amino-6-[1-(2-chloro-3,6-difluoro-phenyl)-ethoxy]-pyrazin-2-yl}-phenyl)-3-(2-hydroxy-ethyl)-urea]
7.09 | CC(Oc1nc(-c2ccc(NC(=O)N3CC[C@H](N)C3)cc2)cnc1N)c1c(F)ccc(F)c1Cl (stereo partly drawn) [II-187, (S)-3-Amino-pyrrolidine-1-carboxylic acid (4-{5-amino-6-[1-(2-chloro-3,6-difluoro-phenyl)-ethoxy]-pyrazin-2-yl}-phenyl)-amide]
7.27 | CC(Oc1nc(-c2ccc(NC(=O)NC3CCN(C)CC3)cc2)cnc1N)c1c(F)ccc(F)c1Cl (stereo not shown) [II-188, 1-(4-{5-Amino-6-[1-(2-chloro-3,6-difluoro-phenyl)-ethoxy]-pyrazin-2-yl}-phenyl)-3-(1-methyl-piperidin-4-yl)-urea]
7.13 | CC(Oc1nc(-c2ccc(NC(=O)N3CCN(C)CC3)cc2)cnc1N)c1c(Cl)ccc(F)c1Cl (stereo not shown) [II-189, 4-Methyl-piperazine-1-carboxylic acid (4-{5-amino-6-[1-(2,6-dichloro-3-fluoro-phenyl)-ethoxy]-pyrazin-2-yl}-phenyl)-amide]
6.55 | CC(Oc1nc(-c2ccc(NC(=O)NCCO)cc2)cnc1N)c1c(Cl)ccc(F)c1Cl (stereo not shown) [II-190, 1-(4-{5-Amino-6-[1-(2,6-dichloro-3-fluoro-phenyl)-ethoxy]-pyrazin-2-yl}-phenyl)-3-(2-hydroxy-ethyl)-urea]
7.28 | CC(Oc1nc(-c2ccc(NC(=O)NC3CCN(C)CC3)cc2)cnc1N)c1c(Cl)ccc(F)c1Cl (stereo not shown) [II-192, 1-(4-{5-Amino-6-[1-(2,6-dichloro-3-fluoro-phenyl)-ethoxy]-pyrazin-2-yl}-phenyl)-3-(1-methyl-piperidin-4-yl)-urea]

Reference: US20050009840A1 (SUGEN, INC., priority 2003, published 2005)
